Data set [1] deals with T1, human Z A1AT (Homo sapiens, UniProt P01009, E366K). Kind of data set: Circulating human Z A1AT levels in huZ mice. In kind it is in vivo, huZ mouse. Further details: from tissue; host or cells: huZ (PiZZ) transgenic mice, line Z11.03, C57Bl/6 background; made in liver, measured in plasma. Conditions: huZ mice, 5, 15 or 50 mg/kg twice a day by oral gavage, 14 days, plasma days 12-14. An excerpt: The huZ mouse (also referred to as the PiZZ mouse) is a transgenic mouse strain that contains multiple copies of the Z variant of the human A1AT gene, developed by two separate groups Dycaico et al (Science (1988) 242:1409-12) and Carlson et al (J. Clin Invest (1989) 83:1183-90). PiZZ mice are on a C57Bl/6 background and express the human Z A1AT protein in liver tissue. The mice used in this study are from the progeny of Carlson and colleagues (transgenic line Z11.03). […]
T1 sequence (P01009 25-418 E366K): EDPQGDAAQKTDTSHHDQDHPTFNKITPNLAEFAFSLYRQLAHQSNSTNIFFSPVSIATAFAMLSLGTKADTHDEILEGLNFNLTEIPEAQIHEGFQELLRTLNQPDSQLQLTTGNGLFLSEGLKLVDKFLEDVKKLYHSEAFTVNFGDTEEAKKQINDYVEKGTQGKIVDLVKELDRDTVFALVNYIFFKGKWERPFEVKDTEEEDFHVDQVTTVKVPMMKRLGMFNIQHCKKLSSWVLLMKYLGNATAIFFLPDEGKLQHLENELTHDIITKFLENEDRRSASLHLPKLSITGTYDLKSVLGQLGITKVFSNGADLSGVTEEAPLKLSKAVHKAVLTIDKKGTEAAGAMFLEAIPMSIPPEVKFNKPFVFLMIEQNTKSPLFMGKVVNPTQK
HuZ mice (n=4/group; male or female) with basal human A1AT plasma levels of between 200-600 μg/ml were treated with either vehicle or N,N-dimethyl-4-((6-oxopyrimidin-1(6H)-yl)methyl)benzamide at 5, 15 or 50 mg/kg twice a day by oral gavage for 14 consecutive days. […] Human Z A1AT levels in mouse plasma samples were measured by ELISA (Human Serpin A1/α1-antitrypsin duo set ELISA, R& D Systems, DY1268) per manufacturer's instructions.
Briefly, a 96 well plate was coated with human A1AT capture antibody overnight at room temperature (1:180 dilution from stock, 100 μl final volume/well). […] After which, 50 μl stop solution (2M H2SO4) was added and optical density (OD) of each well was read at 450 nm with 570 nm blank subtracted from each well using a microplate reader. […]
The effect of N,N-dimethyl-4-((6-oxopyrimidin-1(6H)-yl)methyl)benzamide on circulating levels of human Z A1AT was assessed in a huZ mouse model. […]

Data set [2] deals with hERG (Homo sapiens, UniProt Q12809). Kind of data set: hERG channel inhibition, Patchliner automated patch clamp. The conditions noted are these: human; at 100 μM. In kind it is cell-based. The procedure:
(§1) Compounds of the invention were tested for inhibition of cardiac potassium (hERG) channels using the Patchliner automated patch clamp. 6-Point concentration-response curves were generated using half-log serial dilutions from a maximum final test concentration of 100 μM. IC50 values were obtained from a 4-parameter logistic fit of the concentration-response data. […] Reference compound values were consistent with those presented in the literature (Elkins et al., 2013 J. Pharm. Tox. Meth. 68:11-122).
In general terms: hERG is a cardiac potassium channel; its block is linked to QT prolongation.

Data set [3] concerns the target cardiac potassium (hERG) channels (Homo sapiens, UniProt Q12809). Described as above. In kind it is cell-based. The conditions noted are these: automated patch clamp, maximum test concentration 100 μM. The procedure:
as §1
(In general: The patch-clamp technique gives a direct electrical read-out from membranes.)

Data set [4] addresses T1, human Z A1AT. Kind of data set: A1AT cell secretion assay using HEK-Z cells (ELISA). In kind it is cell-based. Details: expressed in transfected cells; host or cells: HEK-Z (HEK-EBNA cells containing the Z A1AT plasmid). The conditions noted are these: HEK-Z cells, 10, 33, 100 and 333 nM, 48 h, cell supernatant. The method, then: HEK-Z cells, a human embryonic kidney cell line stably transfected with the human Z A1AT gene, were plated into 96 well plates (3.0×10^5 cells/ml with 200 μl of media/well) overnight at 37° C. in a humidified atmosphere containing 5% CO2. Following incubation cells were washed with 200 μl serum-free media three times and media was replaced with treatments in quadruplicate using serum-free media containing either vehicle, 10 μM suberanilohydroxamic acid (SAHA), N,N-dimethyl-4-((6-oxopyrimidin-1(6H)-yl)methyl)benzamide (at concentrations of 10, 33, 100 and 333 nM), N,N-(bis-methyl-d3)-4-((6-oxopyrimidin-1(6H)-yl)methyl)benzamide (at concentrations of 10, 33, 100 and 333 nM) or N-methyl-4-((6-oxopyrimidin-1(6H)-yl)methyl)benzamide (at concentrations of 10, 33, 100 and 333 nM) for 48 h in a 37° C. incubator in a final volume of 200 μl. At the end of the incubation step the supernatants were removed from the wells, centrifuged at 1000×g at 4° C. for 10 min and were assayed for human A1AT levels by ELISA (Human Serpin A1/α1-antitrypsin duo set ELISA, R& D Systems, DY1268) per manufacturer's instructions.
Briefly, a 96 well plate was coated with human A1AT capture antibody overnight at room temperature (1:180 dilution from stock, 100 μl final volume/well). The capture antibody was then removed and wells washed three times with 300 μl wash buffer (0.05% Tween 20 in PBS) and then 200 μl reagent diluent ([…]) was incubated in each well for 1 h at room temperature. […] After which, 50 μl stop solution (2M H2SO4) was added and optical density (OD) of each well was read at 450 nm with 570 nm blank subtracted from each well using a microplate reader. A 4 parameter logistic curve was constructed using GraphPad Prism 7 and A1AT concentrations were determined in each sample by interpolation from a standard curve and multiplying by the appropriate dilution factor.
The amount of A1AT secreted from transfected HEK-EBNA cells into the media was measured by ELISA. […]
(An ELISA detects its analyte on a solid surface through an enzyme-linked reagent.)

Sequence of cardiac potassium (hERG) channels (Q12809 whole entry): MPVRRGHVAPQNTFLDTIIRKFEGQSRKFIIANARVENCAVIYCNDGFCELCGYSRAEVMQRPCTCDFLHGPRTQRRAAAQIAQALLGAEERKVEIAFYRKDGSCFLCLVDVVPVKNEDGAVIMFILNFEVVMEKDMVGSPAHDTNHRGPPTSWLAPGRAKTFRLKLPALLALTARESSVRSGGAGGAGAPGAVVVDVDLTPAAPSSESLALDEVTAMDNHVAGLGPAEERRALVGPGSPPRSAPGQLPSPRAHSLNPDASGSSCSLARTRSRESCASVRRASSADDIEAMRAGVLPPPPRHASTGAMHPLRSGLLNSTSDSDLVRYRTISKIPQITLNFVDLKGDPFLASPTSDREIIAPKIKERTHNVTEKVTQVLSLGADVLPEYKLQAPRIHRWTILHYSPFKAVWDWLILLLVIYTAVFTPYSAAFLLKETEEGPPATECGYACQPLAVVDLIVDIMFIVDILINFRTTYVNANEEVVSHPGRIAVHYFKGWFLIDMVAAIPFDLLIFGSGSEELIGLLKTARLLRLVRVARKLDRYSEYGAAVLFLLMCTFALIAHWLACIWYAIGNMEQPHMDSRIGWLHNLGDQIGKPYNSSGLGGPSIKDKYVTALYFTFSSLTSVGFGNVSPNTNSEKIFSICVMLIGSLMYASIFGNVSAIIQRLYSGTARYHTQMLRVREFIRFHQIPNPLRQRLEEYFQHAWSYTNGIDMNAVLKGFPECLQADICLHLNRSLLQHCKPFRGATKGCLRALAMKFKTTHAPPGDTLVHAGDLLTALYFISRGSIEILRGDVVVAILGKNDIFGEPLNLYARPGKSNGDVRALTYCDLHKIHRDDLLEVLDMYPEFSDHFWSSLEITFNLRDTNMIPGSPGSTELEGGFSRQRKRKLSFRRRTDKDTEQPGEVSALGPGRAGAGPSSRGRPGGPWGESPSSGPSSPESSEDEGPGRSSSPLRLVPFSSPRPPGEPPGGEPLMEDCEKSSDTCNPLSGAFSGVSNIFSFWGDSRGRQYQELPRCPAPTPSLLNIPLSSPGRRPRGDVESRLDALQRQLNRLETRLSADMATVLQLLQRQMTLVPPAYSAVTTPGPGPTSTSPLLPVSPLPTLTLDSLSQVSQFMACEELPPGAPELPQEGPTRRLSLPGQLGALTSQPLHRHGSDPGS
Sequence of hERG (Q12809 whole entry): as above

Usually inhibition stands for the change of the read-out against control, counted positive when it falls. A word on the IC50: it is the point on the concentration scale where inhibition reaches its midpoint. A high value points to lower potency. With `CN(C)C(=O)c1ccc(Cn2cnccc2=O)cc1` [N,N-dimethyl-4-((6-oxopyrimidin-1(6H)-yl)methyl)benzamide], in data set [1], the “circulating human Z A1AT compared to baseline levels” value was “stimulates secretion of human Z A1AT compared to baseline levels in huZ mice in a dose dependent manner”. Further, in data set [2], the inhibition at 100 µM is 7%. The IC50 in data set [3] was over 100 µM. Further, the “secretion of Z A1AT as measured by ELISA” value in data set [4] is “stimulates secretion of Z A1AT in a dose dependent manner”.

These data come from patent US12221422B2, “Compounds and their use for the treatment of alpha1-antitrypsin deficiency” (CENTESSA PHARMACEUTICALS (UK) LIMITED, priority 2018, dated 2025).
